PubChem BioAssay AID200 (DTP/NCI, 2004)
Several values for one entry are separate records, joined by “and”; a condition that tells them apart may be missing. Equal values may be shown once. Toxic doses and inconclusive results are not listed. The calls were made as follows: active = survival T/C of 150% or more; inactive = T/C below 125% in these data. *1 amine or outer side, *2 acyl side, *3 side chain or, on linkers, in order; H or OH if unused. Where a SMILES comes first, the peptide text is derived from it. Bridges are numbered along the chain shown (N, C = ends). [ ]: non-standard residue; d: D form. The star is where a group is joined. X5 = CC(C)C(C)C(C(=O)[*:2])N(C)[*:1]; Picolinoyl(3-OH) = O=C(c1ncccc1O)*; NMePhg = CN[CH](C(=O)O)c1ccccc1; Hyp = O=C(O)[CH]1C[CH](O)CN1; Sar = CNCC(=O)O

Test system: B6C3F1 mice, B16 melanoma ip, median survival T/C
Experiment: NCI In Vivo Anticancer Drug Screen. Data for tumor model B16 Melanoma (intraperitoneal) in B6C3F1 mice
Settings: endpoint: median survival time, higher = longer survival
Description: The antitumor activity of compounds was measured in mice bearing transplantable tumors. Survival or tumor size were measured and the results are expressed as the measurement made in the treated group (T) divided by the measurement made in the vehicle treated control group (C). The tumor model used in this assay is B16 Melanoma (intraperitoneal) in B6C3F1 mice

[1] = dose: 25.0 mg/kg/injection, schedule: Q01DX009 (ip), vehicle: Klucel (hydroxypropylcellulose) (HPC)
[2] = dose: 50.0 mg/kg/injection, schedule: Q01DX009 (ip), vehicle: Klucel (hydroxypropylcellulose) (HPC)
[3] = dose: 100.0 mg/kg/injection, schedule: Q01DX009 (ip), vehicle: Klucel (hydroxypropylcellulose) (HPC)
[4] = dose: 12.0 mg/kg/injection, schedule: Q01DX009 (ip), vehicle: saline
[5] = dose: 100.0 mg/kg/injection, schedule: Q01DX009 (ip), vehicle: saline with Tween-80
[6] = dose: 200.0 mg/kg/injection, schedule: Q01DX009 (ip), vehicle: saline with Tween-80
[7] = dose: 400.0 mg/kg/injection, schedule: Q01DX009 (ip), vehicle: saline with Tween-80
[8] = dose: 100.0 mg/kg/injection, schedule: Q01DX009 (ip), vehicle: saline
[9] = dose: 200.0 mg/kg/injection, schedule: Q01DX009 (ip), vehicle: saline
[10] = dose: 12.5 mg/kg/injection, schedule: Q01DX009 (ip), vehicle: saline with Tween-80
[11] = dose: 25.0 mg/kg/injection, schedule: Q01DX009 (ip), vehicle: saline with Tween-80
[12] = dose: 50.0 mg/kg/injection, schedule: Q01DX009 (ip), vehicle: saline with Tween-80
[13] = dose: 6.25 mg/kg/injection, schedule: Q01DX009 (ip), vehicle: saline with Tween-80
[14] = dose: 50.0 mg/kg/injection, schedule: Q01DX009 (ip), vehicle: saline

Measured: T/C

COc1cc(NS(C)(=O)=O)ccc1Nc1c2ccccc2nc2ccccc12
active: dose: 0.5 mg/kg/injection, schedule: Q01DX009 (ip), vehicle: other 166 % of control and 168 % of control | dose: 1.0 mg/kg/injection, schedule: Q01DX005 (ip), vehicle: other 195 % of control | dose: 1.0 mg/kg/injection, schedule: Q01DX011 (ip), vehicle: saline with Tween-80 175 % of control | dose: 2.0 mg/kg/injection, schedule: Q01DX005 (ip), vehicle: clinical formulation 177 % of control | dose: 2.0 mg/kg/injection, schedule: Q01DX009 (ip), vehicle: saline with Tween-80 193 % of control | dose: 2.0 mg/kg/injection, schedule: Q01DX011 (ip), vehicle: saline with Tween-80 209 % of control | dose: 4.0 mg/kg/injection, schedule: Q01DX005 (ip), vehicle: clinical formulation 275 % of control | dose: 4.0 mg/kg/injection, schedule: Q01DX009 (ip), vehicle: saline with Tween-80 253 % of control | dose: 4.0 mg/kg/injection, schedule: Q01DX009 (ip), vehicle: saline 187 % of control and 213 % of control and 222 % of control | dose: 8.0 mg/kg/injection, schedule: Q01DX009 (ip), vehicle: saline with Tween-80 283 % of control
inactive: dose: 1.0 mg/kg/injection, schedule: Q01DX005 (iv), vehicle: other 101 % of control | dose: 2.0 mg/kg/injection, schedule: Q01DX005 (iv), vehicle: clinical formulation 99 % of control | dose: 2.0 mg/kg/injection, schedule: Q01DX005 (oral), vehicle: other 100 % of control | dose: 4.0 mg/kg/injection, schedule: Q01DX005 (oral), vehicle: other 104 % of control | dose: 4.0 mg/kg/injection, schedule: Q01DX011 (ip), vehicle: saline with Tween-80 63 % of control | dose: 4.0 mg/kg/injection, schedule: Q01DX011 (oral), vehicle: saline with Tween-80 98 % of control | dose: 8.0 mg/kg/injection, schedule: Q01DX001 (iv), vehicle: clinical formulation 105 % of control | dose: 8.0 mg/kg/injection, schedule: Q01DX005 (oral), vehicle: other 103 % of control | dose: 8.0 mg/kg/injection, schedule: Q01DX011 (oral), vehicle: saline with Tween-80 92 % of control | dose: 16.0 mg/kg/injection, schedule: Q01DX001 (iv), vehicle: clinical formulation 112 % of control

NC(N)=NCCCC(NC(=O)c1ccccc1)C(=O)O (configuration not stated)
inactive: dose: 40.0 mg/kg/injection, schedule: Q01DX009 (ip), vehicle: saline with Tween-80 95 % of control and 102 % of control (2×) | dose: 80.0 mg/kg/injection, schedule: Q01DX009 (ip), vehicle: saline with Tween-80 122 % of control and 95 % of control and 96 % of control | dose: 160.0 mg/kg/injection, schedule: Q01DX009 (ip), vehicle: saline with Tween-80 108 % of control and 102 % of control | dose: 320.0 mg/kg/injection, schedule: Q01DX009 (ip), vehicle: saline with Tween-80 108 % of control and 105 % of control and 106 % of control | dose: 640.0 mg/kg/injection, schedule: Q01DX009 (ip), vehicle: saline with Tween-80 113 % of control

O=C(NC(Cc1c[nH]c2ccccc12)C(=O)O)OCC1c2ccccc2-c2ccccc21 (configuration not stated)
inactive: [1] 102 % of control | [2] 92 % of control | [3] 103 % of control

Oc1ccc(CCl)c2cccnc12
inactive: [4] 102 % of control | dose: 12.5 mg/kg/injection, schedule: Q01DX009 (ip), vehicle: saline 100 % of control

COc1cc(-c2ccc(Nc3ccccc3C(=O)O)c(OC)c2)ccc1Nc1ccccc1C(=O)O
inactive: dose: 100.0 mg/kg/injection, schedule: Q01DX009 (ip), vehicle: suspension in saline 94 % of control | dose: 200.0 mg/kg/injection, schedule: Q01DX009 (ip), vehicle: suspension in saline 99 % of control | dose: 400.0 mg/kg/injection, schedule: Q01DX009 (ip), vehicle: suspension in saline 98 % of control

Cc1ccc(N=Nc2c(O)ccc3n[nH]nc23)cc1
inactive: [1] 94 % of control | [2] 96 % of control | [3] 114 % of control

CC(C)OC(CCCl)c1ccccc1 (configuration not stated)
inactive: [5] 94 % of control | [6] 87 % of control | [7] 100 % of control

CN(C)CC(=O)c1ccc(O)c(O)c1
inactive: [8] 104 % of control | [9] 114 % of control and 102 % of control | dose: 400.0 mg/kg/injection, schedule: Q01DX009 (ip), vehicle: saline 122 % of control and 108 % of control

CCO/C=C1\SC(=S)N(c2ccccc2C)C1=O
inactive: [10] 111 % of control | [11] 111 % of control | [12] 108 % of control and 105 % of control | [5] 109 % of control and 116 % of control | [6] 112 % of control and 116 % of control

CCc1cc2c(cc1C(C)=O)C(C)(C)CCC2(C)C
inactive: [13] 89 % of control | [10] 95 % of control | [11] 106 % of control

CC(C)CC1NC(=O)C(NC(=O)c2ncccc2O)C(C)OC(=O)C(c2ccccc2)N(C)C(=O)C(C)NC(=O)C(C(C)C(C)C)N(C)C(=O)CN(C)C(=O)C2CC(O)CN2C1=O (configuration not stated) ({Picolinoyl(3-OH)}-TL[Hyp][Sar][X5]A[NMePhg]; ester 1-C; configuration not given here)
inactive: [2] 103 % of control | [3] 107 % of control | dose: 200.0 mg/kg/injection, schedule: Q01DX009 (ip), vehicle: Klucel (hydroxypropylcellulose) (HPC) 111 % of control

COc1cccc2c1C(=O)c1c(O)c3c(c(O)c1C2=O)CC(O)(/C(C)=N/NC(=O)CCC(=O)N/N=C(\C)C1(O)Cc2c(O)c4c(c(O)c2C(OC2CC(N)C(O)C(C)O2)C1)C(=O)c1c(OC)cccc1C4=O)CC3OC1CC(N)C(O)C(C)O1 (configuration not stated)
active: dose: 0.75 mg/kg/injection, schedule: Q01DX009 (ip), vehicle: water 171 % of control | dose: 1.5 mg/kg/injection, schedule: Q01DX009 (ip), vehicle: water 171 % of control and 195 % of control | dose: 3.0 mg/kg/injection, schedule: Q01DX009 (ip), vehicle: water 202 % of control and 242 % of control | dose: 6.0 mg/kg/injection, schedule: Q01DX009 (ip), vehicle: water 250 % of control and 256 % of control | dose: 12.0 mg/kg/injection, schedule: Q01DX009 (ip), vehicle: water 320 % of control

Cc1nnc(SCC2=C(C(=O)O)N3C(=O)C(NC(=O)Cn4cnnn4)C3SC2)s1 (configuration not stated)
inactive: [14] 91 % of control | [8] 93 % of control | [9] 95 % of control

O=NN(CCF)C(=O)NC1CCC(=O)NC1=O (configuration not stated)
active: dose: 7.5 mg/kg/injection, schedule: Q01DX001 (ip), vehicle: saline 192 % of control | dose: 15.0 mg/kg/injection, schedule: Q01DX001 (ip), vehicle: saline 194 % of control | dose: 30.0 mg/kg/injection, schedule: Q01DX001 (ip), vehicle: saline 235 % of control | dose: 60.0 mg/kg/injection, schedule: Q01DX001 (ip), vehicle: saline 233 % of control

CN(C)CCC(O)c1c[nH]c2ccccc12 (configuration not stated)
inactive: [5] 98 % of control | [6] 94 % of control | [7] 94 % of control

c1csc(C[N+]23CN4CN(CN(C4)C2)C3)c1
inactive: [4] 100 % of control | dose: 25.0 mg/kg/injection, schedule: Q01DX009 (ip), vehicle: saline 98 % of control | [14] 98 % of control | [8] 104 % of control | [9] 106 % of control

CCC1CN2CCC3(C(=O)Nc4ccccc43)C2CC1/C(=C/OC)C(=O)OC (configuration not stated)
inactive: [13] 90 % of control | [10] 108 % of control | [11] 93 % of control | [12] 93 % of control

CCCCCCCC1C(=O)OC2CC3C(C)=CC(=O)C(O)C3(C)C3C4(O)OCC23C1C(C)C4O (configuration not stated)
114 % of control and 250 % of control: dose: 10.0 mg/kg/injection, schedule: Q01DX009 (ip), vehicle: Klucel (hydroxypropylcellulose) (HPC)
active: dose: 1.25 mg/kg/injection, schedule: Q01DX009 (ip), vehicle: Klucel (hydroxypropylcellulose) (HPC) 156 % of control | dose: 20.0 mg/kg/injection, schedule: Q01DX009 (ip), vehicle: Klucel (hydroxypropylcellulose) (HPC) 162 % of control
inactive: dose: 2.5 mg/kg/injection, schedule: Q01DX009 (ip), vehicle: Klucel (hydroxypropylcellulose) (HPC) 110 % of control and 91 % of control | dose: 5.0 mg/kg/injection, schedule: Q01DX009 (ip), vehicle: Klucel (hydroxypropylcellulose) (HPC) 118 % of control and 97 % of control
